Experimental data: patent US12169166B2, “Fluorogenic cyanine compounds for detecting nucleic acids” (AAT Bioquest, Inc., priority 2021, dated 2024)
Entries after “also recorded” stand apart in the source; their conditions may differ.

Assays:
[1] = test system: Calf thymus DNA; test: Fluorescence emission spectra in the presence or absence of DNA; assay type: binding; settings: dye 5 ug/ml, DNA 3 ug/ml, Tris Buffer pH=8.0 (FIG. 2)
Protocol: Absorption and fluorescence spectra of cyanine compounds are measured in the presence or absence of DNA in Tris buffer (pH=8.0). […]

[2] = test system: Calf thymus DNA; test: DNA responses in solution (fluorescence vs DNA concentration); assay type: binding; settings: Tris Buffer pH=8.0, serial DNA dilutions, microtiter plate reader (FIG. 3)
Protocol: The fluorescence intensities of Compound 5 are measured in the presence of serial dilutions of a DNA sample (0, 3.12, 6.25, 12.5, 25, 50, 100, 1000 ng/ml).
The fluorescence of a cyanine compound in 100 μL of Tris Buffer (pH=8.0) are measured in the presence of 0, 0.21, 0.62, 1.85, 5.6, 16.7, and 50 μg/ml final concentrations of Calf thymus DNA with a microtiter plate reader. The fluorescence is plotted against DNA concentration.

[3] = test system: pGL3 Control vector (Promega) DNA; test: Pre-cast DNA gel staining; assay type: binding; settings: 0.9% agarose, dye 1 μg/ml; for sensitivity for detecting DNA on gel compared with TO, pre-cast gel staining: same conditions as TO; for amount of DNA clearly detected per lane, pre-cast gel staining: 300 nm UV transilluminator (FIG. 4)
Protocol: FIGS. 4A-4B show a representation of pre-cast DNA gel staining with Compound 5 versus Thiazole Orange. Serial dilutions of a DNA sample (86, 43, 21.5, 10.7, 5.3, 2.6, 1.3, 0.5 ng/lane) are detected with Thiazole Orange or Compound 5. Compound 5 can clearly detect 5.3 ng DNA while TO can only detect 43 ng.
An agarose gel solution (0.9% agarose) is prepared following a standard protocol (J. Roskams et al., Lab Ref A Handbook of Recipes, Reagents, and Other Reference Tools for Use at the Bench, Cold Spring Harbor Laboratory Press, Cold Spring Harbor, N.Y., 2002). A stock solution of a cyanine dye in DMSO is prepared. An aliquot of the stock solution of dye is added to the gel solution, while it is hot, resulting in an effective working concentration of the dye (1 μg/ml). The resulting solution is thoroughly mixed by swirling. The resulting gel solution is poured onto a gel slab to cast the gel. Serial two-fold dilutions of pGL3 Control vector (Promega) are made and the resulting DNA samples are loaded onto the gel in eight lanes from left to right with a loading of 86, 43, 21.5, 10.7, 5.3, 2.6, 1.3, 0.5 ng/lane, respectively. The DNA samples are electrophoretically separated in 1×TAE buffer using a standard protocol. The resulting gel is then viewed using a UV transilluminator with 300 nm excitation. Photographs of the illuminated gels are taken with an EB filter.

[4] = test system: pGL3 Control vector (Promega) DNA; test: Post-DNA gel staining; assay type: binding; settings: 0.9% agarose, dye 1 ug/ml, same conditions as TO
Protocol: FIGS. 5A-5B show a representation of post-DNA gel staining with Compound 5 versus Thiazole Orange. Serial dilutions of a DNA sample (86, 43, 21.5, 10.7, 5.3, 2.6, 1.3, 0.5 ng/lane) are detected with Thiazole Orange or Compound 5. Compound 5 can clearly detect 1.3 ng DNA while TO can only detect 21.5 ng.
Agarose gels (0.9% agarose) are prepared following a standard protocol (J. Roskams et al., Lab Ref A Handbook of Recipes, Reagents, and Other Reverence Tools for Use at the Bench, Cold Spring Harbor Laboratory Press, Cold Spring Harbor, N.Y., 2002). Serial two-fold dilutions of pGL3 Control vector (Promega) are made and the resulting DNA samples are loaded onto an agarose gel in eight lanes from left to right with a loading of 86, 43, 21.5, 10.7, 5.3, 2.6, 1.3, 0.5 ng/lane, respectively. The DNA samples are electrophoretically separated in 1×TAE buffer using a standard protocol. A stock solution of a cyanine dye in DMSO at about 12 mM concentration is prepared. The stock solution of dye is diluted using an appropriate aqueous solvent to provide a staining solution with an appropriate effective working concentration of the dye (1 ug/ml). The agarose gel is submerged in the staining solution for approximately 30 minutes to stain the gel. The resulting gel is then viewed using a UV transilluminator with 300 nm excitation. […]

[5] = test system: HeLa cells; test: Cellular nucleic acid staining of live and fixed cells; assay type: cell-based; settings: dye 1 μg/ml in PBS, live or fixed HeLa cells, 30 min, fluorescence microscope (FIG. 6)
Protocol: A cyanine dye (1 μg/ml) in PBS buffer is incubated with live or fixed HeLa cells in 96-well plate for 30 min respectively. The fluorescence image of cells is taken with a fluorescence microscope.
A cyanine dye (1 μg/ml) in PBS buffer (prepared from 1 mM DMSO stock solution) is incubated with live and fixed HeLa cells in 96-well plate for 30 min respectively.

[6] = test system: HeLa cells; test: Cellular cytotoxicity (cell viability, WST kit); assay type: cell-based; settings: 0-100 ug/mL dye, 24 hours (FIG. 7)
Protocol: HeLa cells are plated in a 96-well plate (100 μL volume). Next day, to each 100 ul of cells is added 100 ul cyanine solution to make a series of cell samples with the final cyanine dye concentrations of 0, 0.31, 0.62, 1.6, 3.12, 6.25, 12.5, 25, 50, 100 ug/mL respectively. The cell viabilities are measured and plotted for each sample.
HeLa cells are plated in a 96-well plate (100 μL volume). Next day, to each 100 ul of cells is added 100 ul cyanine solution to make a serial cell samples with the final cyanine dye concentrations of 0, 0.31, 0.62, 1.6, 3.12, 6.25, 12.5, 25, 50, 100 ug/mL respectively (total volume is 200 μL for each sample), The cells are incubated in the cyanine-containing media for 24 hours. The cell viabilities are measured with Cell Meter™ Colorimetric WST-5′ Cell Quantification Kit (AAT Bioquest) according to the product instruction.

[7] = test system: S. typhimurium; test: Mutagenicity test with S9 liver extract, colony count; assay type: cell-based; settings: 0.2, 1 and 5 ug/plate, 48 hours at 37° C. (FIG. 8)
Protocol: Mutagenicity tests are performed as described in Example 23.
Tubes of top agar are liquified and cooled to 55-60° C. 0.3 mL of histidine/biotin stock (Presque Isle Cultures) is added alongside 20 uL of S9 liver extract. (Sigma). To the top agar tubes 0.1 mL of S. typhimurium (Grown overnight at 37° C. in TSB culture) is added with 1 mL serological pipette. The mixture is thoroughly mixed by vortexing at low speed. The culture mixture is poured into the plates of the glucose-minimal salts agar plates. With the sterile loops, a disk on its edge is placed near the center of the plate. A serial concentrations of cyanine compounds (0.2, 1 and 5 ug/plate) are added to saturate the disk with a sterile Pasteur pipette. Sterile water is used with the same volume as a negative control. The plates are incubated for 48 hours at 37° C., and the colonies are counted near the disk.

Row | Compound | fluorescence enhancement in the presence vs absence of DNA, compared with TO [1] | fluorescence signal in response to increasing DNA concentrations, compared with TO [2] | sensitivity for detecting DNA on gel compared with TO, pre-cast gel staining [3] | sensitivity for detecting DNA on gel compared with TO, post-gel staining [4] | live cell permeability [5] | cell toxicity compared with SYBR Green [6] | mutagenicity compared with SYBR Green [7] | amount of DNA clearly detected per lane, pre-cast gel staining [3] [ng]
1 | OCCCCN1C(c2ccccc2)=C/C(=C\c2sc3ccccc3[n+]2CCCCO)c2ccccc21 [Compound 4] | stronger fluorescence enhancements than TO | stronger fluorescence signals than TO; also recorded: linearly responded to the DNA concentrations with better sensitivity than TO | significantly higher sensitivity for detecting DNA on a gel than TO; also recorded: much higher sensitivity for detecting DNA on gel than TO | significantly higher sensitivity for detecting DNA on gel than TO; also recorded: much higher sensitivity for detecting DNA on gel than TO | cell impermeability | lower cell toxicity compared to SYBR Green; also recorded: much lower cell toxicity than SYBR Green | significantly lower mutagenicity than SYBR Green; also recorded: much lower mutagenicity than SYBR Green | –
2 | NCCCCN1C(c2ccccc2)=C/C(=C\c2sc3ccccc3[n+]2CCCCN)c2ccccc21 [Compound 5] | stronger fluorescence enhancements than TO | significantly higher fluorescence signals than Thiazole orange (TO); also recorded: stronger fluorescence signals than TO | – | – | live cell impermeant | significantly lower cell toxicity than SYBR Green; also recorded: much lower cell toxicity than SYBR Green | significantly lower mutagenicity than SYBR Green; also recorded: much low mutagenicity than SYBR Green | 5.3
3 | CC(=O)NCCCCN1C(c2ccccc2)=C/C(=C\c2sc3ccccc3[n+]2CCCCNC(C)=O)c2ccccc21 [Compound 6] | stronger fluorescence enhancements than TO | stronger fluorescence signals than TO | significantly higher sensitivity for detecting DNA on a gel than TO; also recorded: much higher sensitivity for detecting DNA on gel than TO | significantly higher sensitivity for detecting DNA on gel than TO; also recorded: much higher sensitivity for detecting DNA on gel than TO | cell impermeability | lower cell toxicity compared to SYBR Green; also recorded: much lower cell toxicity than SYBR Green | significantly lower mutagenicity than SYBR Green; also recorded: much lower mutagenicity than SYBR Green | –
4 | CN1/C(=C/c2cc[n+](C)c3ccccc23)Sc2ccccc21 [TO, Thiazole Orange, reference compound] | – | – | – | – | can readily penetrate the cells | – | – | 43
